Tested on: MDA-MB-231 cells
Assay: MTS proliferation assay on rigid or compliant substrates
Assay type: cell-based, human
Excerpt: This motivated the hypothesis that blocking Gli-activity in metastatic breast tumors could obstruct their potential to establish in bone and adopt a bone-destructive phenotype. […] It is important to note the large variability in tumor burden inherent to the intracardiac model as evidenced by the large standard error. Even with this variability in consideration, there is significant tumor burden in the 10% Aln-GANT58 treated mice despite maintenance of high bone area (FIG. 18C). Based on the present inventors' previous studies reporting that both rigid mineralized bone matrix and TGF-β drive Gli2 expression in bone-metastatic cancer cell lines, it was hypothesized that GANT58-BTNP treatment may have a spatially heterogeneous effect on tumor cells that mirrors the spatial variation in Gli2 expression. Therefore, the effect of GANT58-BTNP treatment on tumor cell proliferation was measured by measuring Ki67 via IHC (FIG. 14F). […]
Proliferation Assay. […] Cell proliferation was determined by MTS assay using the CellTiter 96 Aqueous Non-Radioactive Cell Proliferation Assay kit (Promega) per the manufacturer's instructions. Absorbance values were measured at OD 490 nm on a plate reader and normalized to no cell controls in the respective GelMA coated and uncoated wells.

Structure (SMILES): c1cc(-c2sc(-c3ccncc3)c(-c3ccncc3)c2-c2ccncc2)ccn1 [GANT58]
- proliferation of cells on compliant substrates (40 μM GANT58, GelMA gels): not on compliant substrates
- proliferation of cells on rigid substrates (40 μM GANT58, tissue culture plastic): significantly reduced

From US12648913B2, “Polymeric nanocarriers and methods of use thereof” (Vanderbilt University, priority 2019, dated 2026)
